This note sets out measurements from patent US20080070973A1, “Compounds having activity at the GlyT1 transporter” (priority 2006, published 2008).

Like-named read-outs stand apart in the source and are kept apart here.

In one assay the target is T1, GlyT2 (Homo sapiens, UniProt Q9Y345).
T1 sequence (Q9Y345 1-797): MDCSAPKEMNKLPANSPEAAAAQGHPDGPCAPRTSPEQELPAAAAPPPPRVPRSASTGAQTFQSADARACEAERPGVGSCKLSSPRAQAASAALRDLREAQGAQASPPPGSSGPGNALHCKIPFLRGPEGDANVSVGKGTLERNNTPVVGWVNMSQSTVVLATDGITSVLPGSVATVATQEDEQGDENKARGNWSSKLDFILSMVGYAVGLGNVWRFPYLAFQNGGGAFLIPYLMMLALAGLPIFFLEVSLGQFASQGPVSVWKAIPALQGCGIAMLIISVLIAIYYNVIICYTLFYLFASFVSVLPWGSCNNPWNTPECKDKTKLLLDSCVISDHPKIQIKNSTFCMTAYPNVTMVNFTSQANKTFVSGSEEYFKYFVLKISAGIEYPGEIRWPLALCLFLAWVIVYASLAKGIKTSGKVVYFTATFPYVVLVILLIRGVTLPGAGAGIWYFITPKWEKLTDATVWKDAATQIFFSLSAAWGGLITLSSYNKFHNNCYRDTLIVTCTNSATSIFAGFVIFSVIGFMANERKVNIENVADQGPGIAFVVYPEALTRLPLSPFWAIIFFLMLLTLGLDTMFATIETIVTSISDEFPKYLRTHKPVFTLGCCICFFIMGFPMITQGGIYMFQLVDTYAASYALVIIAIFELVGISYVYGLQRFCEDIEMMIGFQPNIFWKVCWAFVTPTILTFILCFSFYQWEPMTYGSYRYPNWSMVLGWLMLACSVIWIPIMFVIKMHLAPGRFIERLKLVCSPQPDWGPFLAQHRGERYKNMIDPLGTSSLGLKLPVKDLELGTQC
The assay can be described thus: Affinity for GlyT1 compared with GlyT2 (statement, no method given). Particulars: qualitative statement on the parent compound; no value given.

A further assay concerns the target T2, GlyT1 transporter (Homo sapiens, UniProt P48067).
T2 construct: expressed in transfected cells
T2 sequence (P48067 1-706): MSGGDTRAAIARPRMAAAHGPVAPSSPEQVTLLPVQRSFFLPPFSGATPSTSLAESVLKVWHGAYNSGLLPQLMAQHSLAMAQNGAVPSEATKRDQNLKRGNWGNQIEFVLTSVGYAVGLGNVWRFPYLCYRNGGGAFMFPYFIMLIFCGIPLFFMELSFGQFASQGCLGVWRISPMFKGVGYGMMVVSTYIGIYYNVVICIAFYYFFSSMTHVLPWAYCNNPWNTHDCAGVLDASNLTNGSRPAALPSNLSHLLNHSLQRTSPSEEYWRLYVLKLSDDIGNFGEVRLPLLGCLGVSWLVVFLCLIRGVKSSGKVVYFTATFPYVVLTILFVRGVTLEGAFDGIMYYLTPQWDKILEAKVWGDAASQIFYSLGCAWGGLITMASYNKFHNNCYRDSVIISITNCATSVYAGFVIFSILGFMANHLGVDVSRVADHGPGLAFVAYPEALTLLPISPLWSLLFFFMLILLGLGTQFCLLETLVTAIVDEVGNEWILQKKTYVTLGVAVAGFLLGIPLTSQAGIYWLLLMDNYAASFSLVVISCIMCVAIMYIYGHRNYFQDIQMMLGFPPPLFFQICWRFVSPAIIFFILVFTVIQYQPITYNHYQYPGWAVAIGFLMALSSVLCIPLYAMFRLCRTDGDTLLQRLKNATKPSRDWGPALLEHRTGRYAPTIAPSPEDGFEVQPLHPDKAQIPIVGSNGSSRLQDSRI
The assay can be described thus: GlyT1 transporter [3H]-glycine uptake SPA assay in HEK293 cells. Type of assay: cell-based. Particulars: for IC50: HEK293 cells expressing the Glycine (Type 1) transporter. Here is the method:
The affinities of the compounds of this invention for the GlyT1 transporter were determined by the following assay:
HEK293 cells expressing the Glycine (Type 1) transporter were grown in cell culture medium [DMEM/NUT mix F12 containing 2 mM L-Glutamine, 0.8 mg/mL G418 and 10% heat inactivated fetal calf serum] at 37° C. and 5% CO2. Cells grown to 70-80% confluency in T175 flasks were harvested and frozen. For the assay, cells were defrosted and resuspended at 1.32×10^6 cells/mL in assay buffer [140 mM NaCl, 5.4 mM KCl, 1.8 mM CaCl2, 0.8 mM MgSO4, 20 mM HEPES, 5 mM glucose and 5 mM alanine, pH 7.4]. Compounds were serially diluted either 3-fold or 4-fold in DMSO from a top concentration of 2.5 mM with each compound giving a 11 data point dose-response. 100 nL of compound at each concentration was added to the assay plate. An equal volume of Leadseeker™ WGA SPA beads (12.5 mg/ml suspended in assay buffer) was added to the cell suspension (1.32×106) and 5 uL of the cell/bead suspension transferred to each well of a LV384-well white solid bottom plate (3300 cells/well) containing 100 nL of test compounds. Substrate (5 uL) was added to each well [1:100 dilution of [3H]-glycine stock in assay buffer containing 2.5 uM glycine). Final DMSO concentration was 1% v/v. Data was collected using a Perkin Elmer Viewlux™. pIC50 values were determined using ActivityBase™.

For `COc1cc(C(F)(F)F)cc(C(F)(F)F)c1C(=O)NC(c1ccccc1)C(C)(C)N1CCCC1` (stereo not shown) [2-(methyloxy)-N-[2-methyl-1-phenyl-2-(1-pyrrolidinyl)propyl]-4,6-bis(trifluoromethyl)benzamide], the “affinity for GlyT1 relative to GlyT2 (selectivity, result in words)” value on GlyT2 is reported as “greater affinity for GlyT1 than for GlyT2”. On GlyT1 transporter (qualitative statement on the parent compound, no value given), the “inhibition of the glycine transporter type GlyT1 (result in words)” value is reported as “inhibitor of the glycine transporter type GlyT1”. As for `COc1cc(C(F)(F)F)cc(C(F)(F)F)c1C(=O)N[C@H](c1ccccc1)C(C)(C)N1CCCC1` [R-(−)-2-(Methyloxy)-N-[2-methyl-1-phenyl-2-(1-pyrrolidinyl)propyl]-4,6-bis(trifluoromethyl)benzamide 1,5-heminapadisylate], on GlyT1 transporter (n=1, read-out: pIC50 at the GlyT1 transporter (converted)), the IC50 was 5.01 nM.

On to `COc1cc(C(F)(F)F)cc(C(F)(F)F)c1C(=O)N[C@H](c1ccccc1)C(C)(C)N1CCCC1` [R-(−)-2-(Methyloxy)-N-[2-methyl-1-phenyl-2-(1-pyrrolidinyl)propyl]-4,6-bis(trifluoromethyl)benzamide monosuccinate], for which, at GlyT1 transporter (n=5, read-out: average pIC50 at the GlyT1 transporter (converted)), the IC50 was 15.8 nM.
